Assay [1] relates to Bifidobacterium adolescentis ATCC15703. Briefly: Mix-culturing with Bifidobacterium bifidum by HMO as sugar source, quantitative PCR. The settings on record: ATCC 15703^7 mix-cultured with Bifidobacterium bifidum (NITE BP-02429), sugar source 2%, Table 8. Type of assay: cell-based. Here is the method:
(§1) A10% solution of glucose (manufactured by Nakarai Tesque Inc.), and 2′-FL ((≥95%) Funakoshi, available from sigma), and LNnT (manufactured by ELICITYL) as examples of HMOs was prepared with ion exchanged water, and was subjected to sterile filtration using Millex-GV (SLGV033RS).
(§2) Lactobacilli MRS Broth (BD) (0.05% L-Cysteine Hydrochloride for Bacteria of the genus Bifidobacterium) was added to strains of Table 1 below (bacteria belonging to Bifidobacterium bifidum) and Table 2 below. After a sterilization treatment, 3% of the bacterial solution was inoculated, and anaerobically cultured (pre-pre cultured) at 37° C. for 16 h.
(§3) The following day, 1% glucose was added to a modified BL agar medium (“Studies on Bifidobacteria” by Tomotari Mitsuoka, p. 306, Japan Bifidus Foundation, issued in 1994) noted in Table 3, for preparation. After a sterilization treatment, 3% of the pre-pre cultured bacterial solution was inoculated, and anaerobically pre-cultured (pre-cultured) at 37° C. for 12 h.
(§4) The pre-cultured bacterial solution was collected and washed once with a sterile physiological saline solution. Then, mass-up was performed to an equal volume with the modified BL agar medium (“Studies on Bifidobacteria” by Tomotari Mitsuoka, p. 306, Japan Bifidus Foundation, issued in 1994) noted in Table 3 to prepare a suspended bacterial solution.
(§5) The modified BL agar medium (“Studies on Bifidobacteria” by Tomotari Mitsuoka, p. 306, Japan Bifidus Foundation, issued in 1994) noted in Table 3 was prepared at a capacity of 60%, and was subjected to an autoclave sterilization treatment. Then, 40% of each sugar solution prepared in (1) was aseptically added so as to prepare a medium with a sugar concentration of 4%.
(§6) The medium prepared in the above (3) was dispensed at a capacity that is half the capacity for aseptic culturing in a 96-well plate, and each of the bacterial solutions of strains of bacteria belonging to Bifidobacterium bifidum in Table 1 and probiotics having a low ability to assimilate human milk oligosaccharides in Table 2, which was prepared in the above (2), was dispensed at a remaining […] capacity into the medium prepared in the above (3) such that the bacterial solution had 12%. Then, a final sugar concentration was set to 2%. The plate into which the bacterial solution was dispensed was anaerobically cultured at 37° C. for 8 h.
(§7) OD650 was measured from each well in the plates in the above (4) and the above (5) before (0 h) culturing and after (8 h) culturing, by MICROPLATE READER SH-9000 (manufactured by CORONA ELECTRIC). After turbidity measurement, microbial cells were collected, and DNA extraction was performed. After the DNA extraction, the number of proliferating bacteria of Bifidobacteria/lactobacilli was analyzed by using the bacterial species-specific primer noted in Table 4, by a quantitative PCR method (see “Structural analysis of intestinal flora”—analysis of bacterial flora in human feces using quantitative PCR—by Kouichi Watanabe, Enterobacteriological journal, 20:35-42, 2006).
(§8) It was decided to culture Bifidobacterium bifidum (NITE BP-02429) in which availability of 2′-FL or LNnT was found as described above, in combination with strains in Table 2, which cannot use 2′-FL or LNnT. Bifidobacterium bifidum (NITE BP-02429) and the strains in Table 2, which cannot use 2′-FL or LNnT, were mix-cultured by 2′-FL or LNnT as a sugar source, and after culturing for 8 h, the proliferation rate of the number of bacteria of each strain (proliferation rate=the number of bacteria after mix-culturing for 8 h/the number of bacteria after single bacterial culturing) was measured by a quantitative PCR method using each strain-specific oligonucleotide primer noted in Table 4, for the strain in Table 2.

Assay [2] deals with Bifidobacterium pseudolongum ATCC25526. The assay is described as above. Type of assay: cell-based. Particulars: ATCC 25526^T mix-cultured with Bifidobacterium bifidum (NITE BP-02429), sugar source 2%, Table 8. Here is the method:
as §1, §2, §3, §4, §5, §6, §7, §8

Assay [3] relates to Lactobacillus rhamnosus ATCC7469. Described as above. Type of assay: cell-based. The settings on record: ATCC 7469^T mix-cultured with Bifidobacterium bifidum (NITE BP-02429), sugar source 2%, Table 8. The procedure:
as §1, §2, §3, §4, §5, §6, §7, §8

The subject of assay [4] is Lactobacillus plantarum ATCC14917. The description is as above. Type of assay: cell-based. Particulars: ATCC 14917^T mix-cultured with Bifidobacterium bifidum (NITE BP-02429), sugar source 2%, Table 8. The procedure: as §1, §2, §3, §4, §5, §6, §7, §8
Assay [5] has as its system Lactobacillus paracasei ATCC 25302. Described as above. Type of assay: cell-based. The settings on record: for Proliferation rate (number of bacteria after mix-culturing for 8 h/number of bacteria after single bacterial culturing): ATCC 25302^7 mix-cultured with Bifidobacterium bifidum (NITE BP-02429), sugar source 2%, Table 8; for Proliferation ratio of Lactobacillus paracasei ATCC 25302^T (mix-cultured bacteria after 8 h/single bacterial culturing 8 h): Table 12; for number of proliferating bacteria of Lactobacillus paracasei ATCC 25302^T in combination with seven strains of Bifidobacterium bifidum compared to single bacterium culture: summary of Table 12. Here is the method:
as §1, §2, §3, §4, §5, §6, §7, §8
Seven strains of Bifidobacterium bifidum in Table 1 and Lactobacillus paracasei ATCC 25302^T which cannot use 2′-FL or LNnT were mix-cultured by 2′-FL or LNnT as a sugar source. […]

Assay [6] concerns Lactobacillus gasseri ATCC 33323. Described as above. Type of assay: cell-based. Particulars: for Proliferation rate (number of bacteria after mix-culturing for 8 h/number of bacteria after single bacterial culturing): ATCC 33323^T mix-cultured with Bifidobacterium bifidum (NITE BP-02429), sugar source 2%, Table 8; for proliferation rate of Lactobacillus gasseri ATCC 33323^T (mix-cultured bacteria after 8 h/single bacterial culturing 8 h): Table 11. The procedure:
as §1, §2, §3, §4, §5, §6, §7, §8
Seven strains of Bifidobacterium bifidum in Table 1 and Lactobacillus gasseri ATCC 33323^T which cannot use 2′-FL were mix-cultured by 2′-FL as a sugar source. […]

Assay [7] relates to Bifidobacterium peseudocatenulatum ATCC27919. Described as above. Type of assay: cell-based, Bifidobacterium pseudocatenulatum. The settings on record: ATCC 27919^T mix-cultured with Bifidobacterium bifidum (NITE BP-02429), sugar source 2%, Table 8. The procedure:
as §1
Lactobacilli MRS Broth (BD) (0.05% L-Cysteine Hydrochloride for Bacteria of the genus Bifidobacterium) was added to strains of Table 1 below (bacteria belonging to Bifidobacterium bifidum) and Table 2 below. After a sterilization treatment, 3% of the bacterial solution was inoculated, and anaerobically cultured (pre-pre cultured) at 37° C. for 16 h. […]
OD650 was measured from each well in the plates in the above (4) and the above (5) before (0 h) culturing and after (8 h) culturing, by MICROPLATE READER SH-9000 (manufactured by CORONA ELECTRIC). […] After the DNA extraction, the number of proliferating bacteria of Bifidobacteria/lactobacilli was analyzed by using the bacterial species-specific primer noted in Table 4, by a quantitative PCR method (see “Structural analysis of intestinal flora”—analysis of bacterial flora in human feces using quantitative PCR—by Kouichi Watanabe, Enterobacteriological journal, 20:35-42, 2006). […]

In assay [8] the test system is strains in Table 2 except for Bifidobacterium infantis. Briefly: Availability of HMOs by probiotics (single culturing, summary). Type of assay: cell-based. The settings on record: single bacterial culturing, 8 h; summary of Tables 6 and 7. The procedure:
The medium prepared in the above (3) was dispensed at a capacity that is half the capacity for culturing in a 96-well plate, and the bacterial solution prepared in the above (2) was dispensed at a remaining half capacity such that the bacterial solution had 6%. Then, a final sugar concentration was set to 2%. The plate into which the bacterial solution was dispensed was anaerobically cultured at 37° C. for 8 h.
as §7
Regarding strains in Table 2, each strain was cultured as a single bacterium by 2′-FL or LNnT (HMOs) as a sugar source, and OD650 was measured. The results for 2′-FL are noted in Table 6 below, and the results for LNnT are noted in Table 7 below.

[9] abbreviates: mix-cultured with Bifidobacterium bifidum ATCC 29521^T.
[10] abbreviates: mix-cultured with Bifidobacterium bifidum NITE BP-1252.
Where [11] appears, read: mix-cultured with Bifidobacterium bifidum NITE BP-02429.
Setting [12] is: mix-cultured with Bifidobacterium bifidum NITE BP-02431.
Where [13] appears, read: mix-cultured with Bifidobacterium bifidum NITE BP-02432.
Setting [14] is: mix-cultured with Bifidobacterium bifidum NITE BP-02433.
Where [15] appears, read: mix-cultured with Bifidobacterium bifidum NITE P-02648.

Take 2′-fucosyllactose [2′-FL]: the “Proliferation rate (number of bacteria after mix-culturing for 8 h/number of bacteria after single bacterial culturing)” value is 1.91 in assay [1]; 1.24 in assay [2]; 2.69 in assay [3]; 1.76 in assay [4]; 6.92 in assay [5]; 3.70 in assay [6]. Also, in assay [7], the “Proliferation rate (number of bacteria after mix-culturing for 8 h/number of bacteria after single bacterial culturing)” value stood at 3.08. For the same molecule, the “Proliferation ratio of Lactobacillus paracasei ATCC 25302^T (mix-cultured bacteria after 8 h/single bacterial culturing 8 h)” value (shortened to “Proliferation ratio”) is 2.28 in assay [5] (setting [9]); 1.98 in assay [5] (setting [10]); 4.21 in assay [5] (setting [11]); 3.25 in assay [5] (setting [12]); 2.01 in assay [5] (setting [13]); 3.23 in assay [5] (setting [14]). Besides, in assay [5] (setting [15]), the “Proliferation ratio” value is 4.23. Moreover, the “number of proliferating bacteria of Lactobacillus paracasei ATCC 25302^T in combination with seven strains of Bifidobacterium bifidum compared to single bacterium culture” value in assay [5] is on record as “promoted”. Further, the “proliferation rate of Lactobacillus gasseri ATCC 33323^T (mix-cultured bacteria after 8 h/single bacterial culturing 8 h)” value in assay [6] (setting [9]) is 1.45; in assay [6] (setting [10]) it was 3.99; in assay [6] (setting [11]) it was 2.33; in assay [6] (setting [12]), 4.42; in assay [6] (setting [13]), 3.99; in assay [6] (setting [14]), 3.64. In addition, in assay [6] (setting [15]), the “proliferation rate of Lactobacillus gasseri ATCC 33323^T (mix-cultured bacteria after 8 h/single bacterial culturing 8 h)” value came to 2.88. The “number of proliferating bacteria of Lactobacillus gasseri ATCC33323T in combination with seven strains of Bifidobacterium bifidum compared to single bacterium culture” value in assay [6] (summary of Table 11) is recorded as “promoted”. In addition, the “assimilability by strains in Table 2 except for Bifidobacterium infantis” value in assay [8] is listed as “had no assimilability in 2′-FL or LNnT (HMOs), or a low assimilability”.
For `CC(=O)N[C@H]1[C@H](O[C@H]2[C@@H](O)[C@@H](CO)O[C@@H](O[C@H]3[C@H](O)[C@@H](O)C(O)O[C@@H]3CO)[C@@H]2O)O[C@H](CO)[C@@H](O[C@@H]2O[C@H](CO)[C@H](O)[C@H](O)[C@H]2O)[C@@H]1O` (mixture of isomers) [LNnT, lacto-N-neotetraose], the “Proliferation rate (number of bacteria after mix-culturing for 8 h/number of bacteria after single bacterial culturing)” value in assay [1] came to 1.53; in assay [2] it was 0.98; in assay [3], 5.03; in assay [4], 2.58; in assay [5] it was 4.23; in assay [6], 1.53. Also, the “Proliferation rate (number of bacteria after mix-culturing for 8 h/number of bacteria after single bacterial culturing)” value in assay [7] is listed as 1.55. For the same molecule, the “Proliferation ratio” value in assay [5] (setting [9]) is listed as 4.26; in assay [5] (setting [10]), 9.18; in assay [5] (setting [11]), 8.04; in assay [5] (setting [12]), 10.10; in assay [5] (setting [13]), 8.76; in assay [5] (setting [14]), 8.85. Further, in assay [5] (setting [15]), the “Proliferation ratio” value turned out to be 14.78. In addition, the “number of proliferating bacteria of Lactobacillus paracasei ATCC 25302^T in combination with seven strains of Bifidobacterium bifidum compared to single bacterium culture” value in assay [5] is on record as “promoted”. In assay [8], the “assimilability by strains in Table 2 except for Bifidobacterium infantis” value is on record as “had no assimilability in 2′-FL or LNnT (HMOs), or a low assimilability”.

(Values after patent US12022844B2, “Nutritional composition, food/drink composition using nutritional composition, and modified milk powder using nutritional composition” (priority 2018, dated 2024).)
